Measured values: patent US20210379016A1, “THERAPEUTICS AND METHODS OF TREATMENT OF ANGIOTENSIN-CONVERTING ENZYME 2 ASSOCIATED CONDITIONS” (Board of Supervisors of Louisiana State University and …, priority 2020, published 2021)
“Also recorded” adds a separate entry of the source.

Columns and labels:
Sigmar1 = Sigmar1 (Homo sapiens, UniProt Q99720); conditions: cited from earlier work; for Ki: read-out: binding affinity Ki for Sigmar1
[1] = test system: ACE2 expression in HEK-293 cells; experiment: ACE2 expression in HEK-293 cells treated with Sigmar1 ligands for 24 hours; assay type: cell-based; conditions: 24 hours treatment

Chain of Sigmar1 (Q99720 whole entry, species assumed): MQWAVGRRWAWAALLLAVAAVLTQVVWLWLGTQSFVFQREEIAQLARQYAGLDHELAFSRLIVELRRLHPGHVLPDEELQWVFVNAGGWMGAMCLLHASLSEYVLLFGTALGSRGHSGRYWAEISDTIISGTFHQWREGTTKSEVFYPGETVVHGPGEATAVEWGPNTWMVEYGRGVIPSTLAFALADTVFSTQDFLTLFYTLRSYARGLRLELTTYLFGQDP

Q: Which “affinity for Sigmar1 (in words)” value (Sigmar1) does the source give for S=c1sc2ccccc2n1CCCCN1CCN(C2CCCCC2)CC1 [CM156, 3-(4-(4-cyclohexylpiperazin-1-yl)butyl) benzo [d]thiazole-2(3H)-thione] here?
A: nanomolar affinity

Q: For COc1ccc(N2C[C@H](CN3CCC(O)(c4ccc5c(c4)OCO5)CC3)OC2=O)cc1 [Panamesine], which IC50 (Sigmar1) is on record?
A: 6 nM

Q: For CN1CCN(CCc2ccc(Cl)c(Cl)c2)CC1 [BD1063, 1-[2-(3,4-dichlorophenyl)ethyl]-4-methylpiperazine], which Ki (Sigmar1) is on record?
A: 9 ± 1 nM

Q: With CCCN(CCC)CCc1ccc(OC)c(OCCc2ccccc2)c1 [NE-100, 4-methoxy-3-(2-phenylethoxy)-N,N-dipropylbenzeneethanamine] as the compound, how does the ACE2 expression [1] read?
A: significantly decreased the ACE2 expression; also recorded: decreases the ACE2 expression

Q: For c1ccc(CCN2CCCCC2)cc1 [AC927, 1-(2-phenylethyl) piperidine], which Ki (Sigmar1) is on record?
A: 30 ± 2 nM

Q: For CCN(CCc1ccc(Cl)c(Cl)c1)CCN1CCCC1 [BD1067, N-[2-(3,4-dichlorophenyl)ethyl]-N-ethyl-1-pyrrolidineethanamine], which Ki (Sigmar1) is on record?
A: 2 ± 0.5 nM

Q: With CN[C@H]1CC[C@@H](c2ccc(Cl)c(Cl)c2)c2ccccc21 [Sertraline] as the compound, how does the ACE2 expression [1] read?
A: significantly decreased the ACE2 expression; also recorded: decreases the ACE2 expression
